{"source": "patent US20220308062A1", "about": "“METHODS FOR PREDICTING DRUG RESPONSIVENESS IN SAMPLES FROM CANCER SUBJECTS” (Board of Regents, The University of Texas System, priority 2019, published 2022)", "key": {"A549 and H2009 cells": {"test_system": "A549 and H2009 cells", "experiment": "CyTOF profiling of lung cancer cell lines", "type": "cell-based, human", "description": "Cytometry by time of flight mass spectrometry (CyTOF). Antibodies were conjugated according to the manufacturer's instructions (Fluidigm, South San Francisco, Calif.) or purchased in pre-conjugated forms from the supplier (Fluidigm). […] The cells were harvested and stained with cisplatin (Fluidigm) and metal-conjugated surface antibodies sequentially for viability and surface staining. After fixation and permeabilization, the intracellular staining with metal-conjugated antibodies was performed. The cells were then labeled with an iridium-containing DNA intercalator (^191Ir^+, ^193Ir^+) to identify cell events before analysis on a Helios mass cytometer (Fluidigm). Signals were bead-normalized using EQ Four Element Calibration Beads (Fluidigm). Signals of samples were normalized using CyTOF software (Version 6.7.1014, Fluidigm). The generated files underwent signal cleanup and filtering for live/dead cells using Cytobank (https://www.cytobank.org/, Cytobank Inc.) and download gated Flow Cytometry Standard (FCS) file for further analysis using Cytofkit based on PhenoGraph algorithm, which was implemented in R and freely available from the Bioconductor website (https://bioconductor.org/packages/cytofkit/). CyTOF data was visualized using t-distributed stochastic neighbor embedding (t-SNE) algorithm and plotted on a continuum of protein expression with phenotypically related cells clustered together.\n(§1) Cytometry by time-of-flight (CyTOF). Antibodies were conjugated in-house according to the manufacturer's instructions or purchased in pre-conjugated forms from the supplier (Fluidigm; Table 5). Single cells from cell lines, tumors, or PBMCs were harvested and stained with cisplatin and metal-conjugated surface antibodies sequentially for viability and surface staining. After fixation and permeabilization, cells were stained with metal-conjugated antibodies. The cells were then labeled with an iridium-containing DNA intercalator (^191Ir^+ or ^193Ir^+) for identification of cell events before analysis on a Helios mass cytometer. Signals were bead-normalized using EQ Four Element Calibration Beads.\nSignals of samples were normalized using CyTOF software (Version 6.7.1014, Fluidigm). The generated files underwent signal cleanup and filtering for single cells using Cytobank (https://www.cytobank.org/). The gated Flow Cytometry Standard (FCS) file were downloaded for further analysis using Cytofkit. The PhenoGraph clustering algorithm in Cytofkit was implemented in R from the Bioconductor website (https://bioconductor.org/packages/cytofkit/). […] Epithelial and mesenchymal indices were calculated based on the average Z-score of epithelial and mesenchymal markers. […]"}, "[1]": {"test_system": "PMA-stimulated U937 macrophages cocultured with A549 or H2009", "experiment": "U937 coculture with lung cancer cells, CyTOF", "type": "cell-based, human", "source_text": "as §1, with “Materials and methods. U937 coculture with lung cancer cells. […] The cells were harvested and fixed to process CyTOF staining.” for “Cytometry by time-of-flight (CyTOF).”, “(Fluidigm).” for “(Fluidigm; Table 5).”, “lines” for “lines, tumors, or PBMCs”, “(191Ir+” for “(^191Ir^+”, “193Ir+)” for “^193Ir^+)”\nSignals of samples were normalized using CyTOF software (Version 6.7.1014, Fluidigm). The generated files underwent signal cleanup and filtering for single cells using Cytobank (https://www.cytobank.org/). Macrophage population was gated out based on CD45 expression to generate Flow Cytometry Standard (FCS) file. The gated FCS file were downloaded for further analysis using Cytofkit. The PhenoGraph clustering algorithm in Cytofkit was implemented in R from the Bioconductor website (https://bioconductor.org/packages/cytofkit/). CyTOF data of macrophage were clustered and visualized using t-distributed stochastic neighbor embedding (t-SNE) algorithm based on normalized expression levels (Z-score) of 4 markers (CD14, CD16, CD163 and CD86)."}}, "data": [{"compound": "CN1CCN(Cc2ccc(Nc3ncc(Cl)c(Nc4ccccc4S(=O)(=O)N(C)C)n3)cc2)CC1", "note": "[TP-0903]", "values": [{"measurement": "phosphorylated STAT3 (pSTAT3) levels (CyTOF)", "setting": "A549 and H2009 cells; A549, 40 nmol/L", "value": "dramatically increased"}, {"measurement": "SMAD4 (CyTOF)", "setting": "A549 and H2009 cells; A549 subpopulations #6-8, 40 nmol/L", "value": "suppressed"}, {"measurement": "JAK1-pSTAT3 expression (CyTOF)", "setting": "A549 and H2009 cells; H2009 subpopulations #15 and 16 after treatment", "value": "amplified"}, {"measurement": "CD133 (CyTOF)", "setting": "A549 and H2009 cells; cell lines, 40 nmol/L", "value": "elevated"}, {"measurement": "high CD163 subpopulations", "setting": "[1]; 20, 40 and 80 nmol/L, increasing concentration", "value": "decreased"}, {"measurement": "CD14high/CD16+/CD163high/CD86high macrophage subtype proportion", "setting": "[1]; 72 hr coculture", "value": "decreased"}, {"measurement": "SMAD2 in CD14high/CD16+/CD163high/CD86high subtype", "setting": "[1]; 72 hr coculture", "value": "down-regulated"}]}]}
